Measured values as given in the supplement of paper PMC10307832.

Legend:
Experiment in all cases: relative viability (nuclei count vs DMSO), 5 days (fraction); higher = more cells survive
[1] = compound: CCn1c(-c2nonc2N)nc2cnc(Oc3cccc(NC(=O)c4ccc(OCCN5CCOCC5)cc4)c3)cc21 + COc1cc2c(Oc3ccc(NC(=O)C4(C(=O)Nc5ccc(F)cc5)CC4)cc3F)ccnc2cc1OCCCN1CCOCC1 [Foretinib] (partner 0.25 µM)
Procedure, shortened: (§1)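 For relative viability, nuclei counts in treated wells were divided by those in vehicle wells. Lung cancer cell lines had been pin-tool dosed in 1536-well plates the day after seeding and cultured for 5 days, then fixed and stained in one step (final 0.05% Triton X-100, 1% formaldehyde, 1 ug/ml Hoechst) and imaged at 4×. Doses were one drug alone or a fixed anchor-drug dose plus five library-drug doses (not always all listed) in √10 steps, and values are duplicate-plate medians.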

[2] = compound: CCn1c(-c2nonc2N)nc2cnc(Oc3cccc(NC(=O)c4ccc(OCCN5CCOCC5)cc4)c3)cc21 + Nc1nc2[nH]cc(CCc3ccc(C(=O)N[C@@H](CCC(=O)O)C(=O)O)cc3)c2c(=O)[nH]1 [Pemetrexed] (partner 0.2 µM)
Procedure, shortened: as §1

Mirin + Dasatinib = compound: N=C1NC(=O)/C(=C/c2ccc(O)cc2)S1 [Mirin] + Cc1nc(Nc2ncc(C(=O)Nc3c(C)cccc3Cl)s2)cc(N2CCN(CCO)CC2)n1 [Dasatinib] (partner 0.075 µM)
Procedure, shortened: as §1

Mirin + Pemetrexed = compound: N=C1NC(=O)/C(=C/c2ccc(O)cc2)S1 [Mirin] + Nc1nc2[nH]cc(CCc3ccc(C(=O)N[C@@H](CCC(=O)O)C(=O)O)cc3)c2c(=O)[nH]1 [Pemetrexed] (partner 0.2 µM)
Procedure, shortened: as §1

Row | Cell Line | relative viability ([1]; first compound 0.04 µM) | relative viability ([1]; first compound 0.1265 µM) | relative viability ([1]; first compound 0.4 µM) | relative viability ([1]; first compound 1.265 µM) | relative viability ([1]; first compound 4 µM) | relative viability ([2]; first compound 0.04 µM) | relative viability ([2]; first compound 0.1265 µM) | relative viability ([2]; first compound 0.4 µM) | relative viability ([2]; first compound 1.265 µM) | relative viability ([2]; first compound 4 µM) | relative viability (Mirin + Dasatinib; first compound 0.25 µM) | relative viability (Mirin + Dasatinib; first compound 0.7906 µM) | relative viability (Mirin + Dasatinib; first compound 2.5 µM) | relative viability (Mirin + Dasatinib; first compound 7.906 µM) | relative viability (Mirin + Dasatinib; first compound 25 µM) | relative viability (Mirin + Pemetrexed; first compound 0.25 µM) | relative viability (Mirin + Pemetrexed; first compound 0.7906 µM) | relative viability (Mirin + Pemetrexed; first compound 2.5 µM) | relative viability (Mirin + Pemetrexed; first compound 7.906 µM) | relative viability (Mirin + Pemetrexed; first compound 25 µM)
1 | NCI-H3122 | 1.06 | 0.969 | 0.935 | 0.972 | 0.832 | 0.217 | 0.214 | 0.183 | 0.17 | 0.202 | 0.892 | 0.419 | 0.807 | 0.685 | 0.665 | 0.195 | 0.213 | 0.209 | 0.208 | 0.264
2 | PC-3 [JPC-3] | 1.06 | 1.08 | 1.11 | 1.01 | 0.942 | 1.14 | 1.03 | 1.05 | 0.662 | 0.928 | 1.03 | 0.979 | 1.04 | 0.981 | 1.08 | 1.11 | 1.03 | 1.22 | 1.2 | 1.29
3 | PC-14 | 0.927 | 0.84 | 0.761 | 0.718 | 0.72 | 0.136 | 0.149 | 0.131 | 0.138 | 0.177 | 0.243 | 0.248 | 0.26 | – | 0.295 | 0.127 | 0.14 | 0.143 | 0.134 | 0.171
4 | RERF-LC-KJ | 1.02 | 0.829 | 0.74 | 0.532 | 0.532 | 0.471 | 0.439 | 0.418 | 0.384 | 0.415 | 0.958 | 0.831 | 0.843 | 0.685 | 0.688 | 0.429 | 0.514 | 0.485 | 0.49 | 0.42
5 | SK-LU-1 | 0.837 | 0.621 | 0.587 | 0.333 | 0.318 | 0.918 | 0.906 | 0.772 | 0.457 | 0.372 | 0.209 | 0.163 | 0.161 | 0.209 | 0.224 | 0.983 | 0.992 | 0.931 | 0.855 | 0.823
6 | SK-MES-1 | 1.03 | 0.645 | 0.502 | 0.674 | 0.638 | 1.08 | 0.941 | 0.829 | 0.66 | 0.46 | 0.368 | 0.341 | 0.446 | 0.475 | 0.389 | 0.993 | 1.09 | 0.998 | 1.08 | 1.01
7 | SW 900 | 1.04 | 0.977 | 0.91 | 0.995 | 0.886 | 0.526 | 0.49 | 0.439 | 0.442 | 0.444 | 0.513 | 0.521 | 0.54 | 0.542 | 0.47 | 0.505 | 0.494 | 0.47 | 0.494 | 0.48
8 | SW 1573 | 1.1 | 0.926 | 0.527 | 0.539 | 0.354 | 0.913 | 0.821 | 0.535 | 0.32 | 0.261 | 0.466 | 0.506 | 0.605 | 0.361 | 0.295 | 0.742 | 0.84 | 0.818 | 0.715 | 0.642
